PubChem BioAssay (NCI)
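Following 48 hours of exposure in 96-well plates, responses at five concentrations were used to interpolate endpoints linearly. TGI denotes the concentration required for complete inhibition of growth.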

Columns and labels:
Experiment in all cases: growth of human tumour cells (NCI), 48 h
[1] = system: MALME-3M melanoma
[2] = system: HT29 colon
[3] = system: A549 NSCLC
[4] = system: HOP-18 NSCLC
[5] = system: KM20L2 colon
[6] = system: HOP-62 NSCLC
[7] = system: SNB-78 CNS
[8] = system: IGROV1 ovarian
[9] = system: ACHN renal
[10] = system: NCI-H522 lung
[11] = system: HOP-92 NSCLC
[12] = system: SW-620 colon
[13] = system: SK-OV-3 ovarian
[14] = system: DMS 114 small cell lung
[15] = system: RPMI-8226 leukemia
[16] = system: K-562 leukemia
[17] = system: DLD-1 colon
[18] = system: SN12C renal
[19] = system: M19-MEL melanoma
[20] = system: OVCAR-5 ovarian
[21] = system: SF-295 CNS
[22] = system: SR leukemia
[23] = system: EKVX NSCLC
[24] = system: HCT-116 colon
[25] = system: XF 498 CNS
[26] = system: A498 renal
[27] = system: UO-31 renal
[28] = system: LOX IMVI melanoma
[29] = system: HL-60(TB) leukemia
[30] = system: OVCAR-8 ovarian
[31] = system: 786-0 renal
[32] = system: SNB-19 CNS
[33] = system: NCI-H460 lung
[34] = system: LXFL 529 NSCLC
[35] = system: KM12 colon
[36] = system: M14 melanoma
[37] = system: U251 CNS
[38] = system: SF-539 CNS
[39] = system: HCC-2998 colon
[40] = system: OVCAR-4 ovarian
[41] = system: NCI-H226 lung
[42] = system: RXF 393 renal
[43] = system: SK-MEL-28 melanoma
[44] = system: UACC-257 melanoma
[45] = system: HCT-15 colon
[46] = system: NCI-H23 lung
[47] = system: TK-10 renal
[48] = system: MOLT-4 leukemia
[49] = system: DMS 273 small cell lung
[50] = system: SNB-75 CNS
[51] = system: COLO 205 colon
[52] = system: SF-268 CNS
[53] = system: OVCAR-3 ovarian
[54] = system: CAKI-1 renal
[55] = system: UACC-62 melanoma
[56] = system: SK-MEL-5 melanoma
[57] = system: CCRF-CEM leukemia
[58] = system: RXF-631 renal
[59] = system: HS 578T breast
[60] = system: DU-145 prostate
[61] = system: BT-549 breast
[62] = system: MDA-MB-231 breast
[63] = system: T-47D breast
[64] = system: PC-3 prostate
[65] = system: SK-MEL-2 melanoma
[66] = system: MDA-MB-435
[67] = system: MDA-N

Structure (SMILES): CC1=C/C(=C2/N=C(N(C)C)SS2)C(C)=N1
- TGI [1]: > 100 µM
- TGI [2]: > 100 µM
- TGI [3]: > 100 µM
- TGI [4]: > 100 µM
- TGI [5]: > 100 µM
- TGI [6]: > 100 µM
- TGI [7]: > 100 µM
- TGI [8]: > 100 µM
- TGI [9]: > 100 µM
- TGI [10]: > 100 µM
- TGI [11]: > 100 µM
- TGI [12]: > 100 µM
- TGI [13]: > 100 µM
- TGI [14]: > 100 µM
- TGI [15]: > 100 µM
- TGI [16]: > 100 µM
- TGI [17]: > 100 µM
- TGI [18]: > 100 µM
- TGI [19]: > 100 µM
- TGI [20]: > 100 µM
- TGI [21]: > 100 µM
- TGI [22]: > 100 µM
- TGI [23]: > 100 µM
- TGI [24]: > 100 µM
- TGI [25]: > 100 µM
- TGI [26]: > 100 µM
- TGI [27]: > 100 µM
- TGI [28]: > 100 µM
- TGI [29]: > 100 µM
- TGI [30]: > 100 µM
- TGI [31]: > 100 µM
- TGI [32]: > 100 µM
- TGI [33]: > 100 µM
- TGI [34]: > 100 µM
- TGI [35]: > 100 µM
- TGI [36]: > 100 µM
- TGI [37]: > 100 µM
- TGI [38]: > 100 µM
- TGI [39]: > 100 µM
- TGI [40]: > 100 µM
- TGI [41]: > 100 µM
- TGI [42]: > 100 µM
- TGI [43]: > 100 µM
- TGI [44]: > 100 µM
- TGI [45]: > 100 µM
- TGI [46]: > 100 µM
- TGI [47]: > 100 µM
- TGI [48]: > 100 µM
- TGI [49]: > 100 µM
- TGI [50]: > 100 µM
- TGI [51]: > 100 µM
- TGI [52]: > 100 µM
- TGI [53]: > 100 µM
- TGI [54]: > 100 µM

Structure (SMILES): COC[C@@H](N=CN1CCc2cc(OC)c(OC)cc2C1)C(C)(C)C
- TGI [1]: > 100 µM
- TGI [2]: > 100 µM
- TGI [3]: > 100 µM
- TGI [4]: > 100 µM
- TGI [5]: > 100 µM
- TGI [6]: > 100 µM
- TGI [8]: > 100 µM
- TGI [9]: > 100 µM
- TGI [10]: > 100 µM
- TGI [11]: > 100 µM
- TGI [12]: > 100 µM
- TGI [55]: > 100 µM
- TGI [13]: > 100 µM
- TGI [14]: > 100 µM
- TGI [15]: > 100 µM
- TGI [16]: > 100 µM
- TGI [17]: > 100 µM
- TGI [18]: > 100 µM
- TGI [19]: > 100 µM
- TGI [21]: > 100 µM
- TGI [22]: > 100 µM
- TGI [23]: > 100 µM
- TGI [24]: > 100 µM
- TGI [25]: > 100 µM
- TGI [27]: > 100 µM
- TGI [29]: > 100 µM
- TGI [30]: > 100 µM
- TGI [31]: > 100 µM
- TGI [32]: > 100 µM
- TGI [33]: > 100 µM
- TGI [34]: > 100 µM
- TGI [35]: > 100 µM
- TGI [36]: > 100 µM
- TGI [37]: > 100 µM
- TGI [38]: > 100 µM
- TGI [40]: > 100 µM
- TGI [41]: > 100 µM
- TGI [42]: > 100 µM
- TGI [43]: > 100 µM
- TGI [44]: > 100 µM
- TGI [45]: > 100 µM
- TGI [46]: > 100 µM
- TGI [47]: > 100 µM
- TGI [48]: > 100 µM
- TGI [56]: > 100 µM
- TGI [50]: > 100 µM
- TGI [51]: > 100 µM
- TGI [52]: > 100 µM
- TGI [57]: > 100 µM
- TGI [53]: > 100 µM
- TGI [54]: > 100 µM
- TGI [58]: > 100 µM

Structure (SMILES): CCN(CC)CCNC(=O)c1nn(-c2ccc(Cl)cc2)c2c1CCc1cc(OC)ccc1-2
- TGI [1]: 2.95 µM
- TGI [2]: 6.7 µM
- TGI [3]: 21.3 µM
- TGI [4]: 28.7 µM
- TGI [59]: 13.8 µM
- TGI [5]: 3.32 µM
- TGI [6]: 29.2 µM
- TGI [7]: 24.2 µM
- TGI [8]: 26.6 µM
- TGI [9]: 23.7 µM
- TGI [10]: 11 µM
- TGI [11]: 15.8 µM
- TGI [12]: 7.59 µM
- TGI [55]: 7.58 µM
- TGI [60]: 29.1 µM
- TGI [13]: 27.5 µM
- TGI [14]: 6.68 µM
- TGI [15]: 8.72 µM
- TGI [16]: 11.1 µM
- TGI [17]: 14.2 µM
- TGI [18]: 24.2 µM
- TGI [19]: 7.11 µM
- TGI [20]: 15 µM
- TGI [21]: 7.37 µM
- TGI [61]: 32.1 µM
- TGI [22]: 22 µM
- TGI [23]: 23.4 µM
- TGI [62]: 24.5 µM
- TGI [24]: 13.3 µM
- TGI [25]: 17.6 µM
- TGI [26]: 21.9 µM
- TGI [27]: 9.24 µM
- TGI [28]: 4.11 µM
- TGI [29]: 14.5 µM
- TGI [30]: 28.2 µM
- TGI [31]: 12 µM
- TGI [32]: 23.2 µM
- TGI [33]: 11.8 µM
- TGI [34]: 16.4 µM
- TGI [35]: 19.5 µM
- TGI [36]: 5.86 µM
- TGI [37]: 17.8 µM
- TGI [38]: 13.4 µM
- TGI [63]: 21 µM
- TGI [39]: 5.52 µM
- TGI [40]: 21.9 µM
- TGI [64]: 26.3 µM
- TGI [41]: 24.2 µM
- TGI [42]: 8.99 µM
- TGI [43]: 4.23 µM
- TGI [65]: 3.18 µM
- TGI [66]: 23.6 µM
- TGI [44]: 3.57 µM
- TGI [45]: 7.81 µM
- TGI [46]: 25.8 µM
- TGI [47]: 23.8 µM
- TGI [48]: 28.5 µM
- TGI [49]: 5.98 µM
- TGI [56]: 3.17 µM
- TGI [67]: 10.2 µM
- TGI [50]: 14.5 µM
- TGI [51]: 6.42 µM
- TGI [52]: 22.2 µM
- TGI [57]: 20.1 µM
- TGI [53]: 20.6 µM
- TGI [54]: 19.9 µM
- TGI [58]: 3.16 µM

Structure (SMILES): COC1=CC(=O)NCCN1
- TGI [1]: > 100 µM
- TGI [2]: > 100 µM
- TGI [3]: > 100 µM
- TGI [4]: > 100 µM
- TGI [5]: > 100 µM
- TGI [6]: > 100 µM
- TGI [7]: > 100 µM
- TGI [8]: > 100 µM
- TGI [9]: > 100 µM
- TGI [10]: > 100 µM
- TGI [11]: > 100 µM
- TGI [12]: 50.9 µM
- TGI [55]: > 100 µM
- TGI [13]: > 100 µM
- TGI [14]: > 100 µM
- TGI [16]: > 100 µM
- TGI [17]: > 100 µM
- TGI [18]: > 100 µM
- TGI [19]: > 100 µM
- TGI [20]: > 100 µM
- TGI [21]: > 100 µM
- TGI [22]: > 100 µM
- TGI [23]: > 100 µM
- TGI [24]: > 100 µM
- TGI [25]: > 100 µM
- TGI [26]: > 100 µM
- TGI [27]: > 100 µM
- TGI [28]: 45.2 µM
- TGI [29]: 41 µM
- TGI [30]: > 100 µM
- TGI [31]: > 100 µM
- TGI [32]: > 100 µM
- TGI [33]: 85.9 µM
- TGI [34]: > 100 µM
- TGI [35]: > 100 µM
- TGI [36]: > 100 µM
- TGI [37]: > 100 µM
- TGI [38]: > 100 µM
- TGI [39]: > 100 µM
- TGI [40]: > 100 µM
- TGI [41]: > 100 µM
- TGI [42]: > 100 µM
- TGI [43]: > 100 µM
- TGI [65]: > 100 µM
- TGI [44]: > 100 µM
- TGI [45]: > 100 µM
- TGI [46]: > 100 µM
- TGI [47]: > 100 µM
- TGI [48]: > 100 µM
- TGI [49]: > 100 µM
- TGI [56]: > 100 µM
- TGI [50]: > 100 µM
- TGI [51]: > 100 µM
- TGI [52]: > 100 µM
- TGI [57]: > 100 µM
- TGI [53]: > 100 µM
- TGI [54]: > 100 µM
- TGI [58]: > 100 µM
